Measurements from patent US11571421B2, “GABAA positive allosteric modulator compounds for treatment of itch and/or dermatitis” (NeuroCycle Therapeutics, Inc., priority 2018, dated 2023).
Values joined by “and” are separate entries in the source; they are usually repeats but may differ in a detail not shown here. Identical values can stand only once.

Legend:
[1] = tested on: Chloroquine (CQ)-Induced Itch Model in Male C57BL/6 Mice; test: Chloroquine Induced Itch Model, PF-06372865 (Example 1); type: in vivo
Method: PF-06372865 was evaluated as an antipruritic and/or antidermatitis agent using a Chloroquine Induced Itch Model in male C57BL/6 mice.
Male C57BL/6 Mice (8-10 weeks) were used in the study. Animals were procured from CRL, Hylasco (CPSCEA registered animal supplier).
Mice were housed one per cage and maintained at controlled environmental conditions with 12-h light and dark cycles. The temperature and humidity of the room were maintained between 22±3° C. and 55±5%, respectively. The maximum and minimum temperature and relative humidity in the experimental rooms were recorded once daily. […]
PF-06372865 was weighed into a clean mortar. Liquefied Solutol (i.e., Polyoxyl 15 Hydroxystearate) was added drop wise and triturated using a pestle for 2-3 minutes, then Glycerol formal was added and mixed in same fashion. The volume was made up by slowly adding the required volume of water. The resulting mixture was mixed well using mild vortexing to provide a homogeneous suspension. (Details in below chart)
27 mg of chloroquine phosphate was weighed in a clean glass container. 6 mL PBS was added, and the resulting mixture was mixed well using mild vortexing to form the desired strength solution.
The right-side cheek area of all the animals was shaved with animal clippers 1 day prior to the experiment. Animals were randomized into different treatment groups (n=9/group) based on body weight to avoid variability in weights across groups. NCT10004 Phosphate and PF-06372865 formulations and chloroquine phosphate solution were prepared on the day of the experiment.
Animals were dosed per oral with respective treatment group using a dose volume of 10 ml/kg. Times of dosing were recorded. Immediately after compound treatment, animals were kept in an empty transparent chamber (23 cm length×17 cm width) for acclimatization and observation.
Ninety (90) minutes post compound dosing, 50-μl of chloroquine phosphate solution (a 200-μg dose) was injected intracutaneously into the animal's right cheek. Animals were returned to the same chamber for observation. Animals were observed by an observer blind to the treatment group for a period of 30 minutes post chloroquine injection. Total number of bouts of scratching directed at the ipsilateral cheek were recorded for 30 minutes.

Male C57BL/6 Mice = test: Sedative effects, open field arena activity (Example 4); type: in vivo; conditions: per oral 1, 3, 10, 30 and 100 mg/kg; recorded for one hour starting one hour after injection
Method: In order to exclude any sedative effects PF-06372865 might have on mice, a dose-response experiment is included. The mice receive per oral injections of PF-06372865 in varying doses (vehicle, 1, 3, 10, 30 and 100 mg/kg). After injection, the mice are placed in an open field arena and their activity is recorded for one hour starting one hour after injection.

[2] = 0.3 mg/kg PO, individual animals
[3] = 10 mg/kg PO, individual animals
[4] = 30 mg/kg PO, individual animals

Compound: CCn1cnc2c(-c3ccc(F)c(-c4ccc(S(=O)(=O)CC)cc4OC)c3)cnnc21 [PF-06372865]
- Scratching bouts (Nos.) in 30 min, 0-5 min ([1]; 0.3 mg/kg PO, MEAN, N=9): 2.22 Nos.
- Scratching bouts (Nos.) in 30 min, 5-10 min ([1]; 0.3 mg/kg PO, MEAN, N=9): 6.67 Nos.
- Scratching bouts (Nos.) in 30 min, 10-15 min ([1]; 0.3 mg/kg PO, MEAN, N=9): 26.22 Nos.
- Scratching bouts (Nos.) in 30 min, 15-20 min ([1]; 0.3 mg/kg PO, MEAN, N=9): 24.67 Nos.
- Scratching bouts (Nos.) in 30 min, 20-25 min ([1]; 0.3 mg/kg PO, MEAN, N=9): 21.00 Nos.
- Scratching bouts (Nos.) in 30 min, 25-30 min ([1]; 0.3 mg/kg PO, MEAN, N=9): 0.00 Nos.
- Total Scratching bouts ([1]; 0.3 mg/kg PO, MEAN, N=9): 80.78 Nos./30 min
- Scratching bouts (Nos.) in 30 min, 0-5 min [1, 2]: 0 Nos. (6×) and 1 Nos. and 15 Nos. and 4 Nos.
- Scratching bouts (Nos.) in 30 min, 5-10 min [1, 2]: 56 Nos. and 0 Nos. (6×) and 1 Nos. and 3 Nos.
- Scratching bouts (Nos.) in 30 min, 10-15 min [1, 2]: 47 Nos. and 0 Nos. (3×) and 19 Nos. and 46 Nos. and 76 Nos. and 21 Nos. and 27 Nos.
- Scratching bouts (Nos.) in 30 min, 15-20 min [1, 2]: 10 Nos. and 25 Nos. (2×) and 39 Nos. and 13 Nos. and 36 Nos. and 31 Nos. and 11 Nos. and 32 Nos.
- Scratching bouts (Nos.) in 30 min, 20-25 min [1, 2]: 0 Nos. (3×) and 49 Nos. and 33 Nos. and 27 Nos. (2×) and 24 Nos. and 29 Nos.
- Scratching bouts (Nos.) in 30 min, 25-30 min [1, 2]: 0 Nos.
- Total Scratching bouts [1, 2]: 113 Nos./30 min and 74 Nos./30 min and 25 Nos./30 min and 72 Nos./30 min and 33 Nos./30 min and 110 Nos./30 min and 149 Nos./30 min and 56 Nos./30 min and 95 Nos./30 min
- Scratching bouts (Nos.) in 30 min, 0-5 min ([1]; 1 mg/kg PO, MEAN, N=9): 1.22 Nos.
- Scratching bouts (Nos.) in 30 min, 5-10 min ([1]; 1 mg/kg PO, MEAN, N=9): 20.56 Nos.
- Scratching bouts (Nos.) in 30 min, 10-15 min ([1]; 1 mg/kg PO, MEAN, N=9): 9.11 Nos.
- Scratching bouts (Nos.) in 30 min, 15-20 min ([1]; 1 mg/kg PO, MEAN, N=9): 23.11 Nos.
- Scratching bouts (Nos.) in 30 min, 20-25 min ([1]; 1 mg/kg PO, MEAN, N=9): 8.33 Nos.
- Scratching bouts (Nos.) in 30 min, 25-30 min ([1]; 1 mg/kg PO, MEAN, N=9): 8.11 Nos.
- Total Scratching bouts ([1]; 1 mg/kg PO, MEAN, N=9): 70.44 Nos./30 min
- Scratching bouts (Nos.) in 30 min, 0-5 min ([1]; 1 mg/kg PO, individual animals): 0 Nos. (6×) and 1 Nos. and 8 Nos. and 2 Nos.
- Scratching bouts (Nos.) in 30 min, 5-10 min ([1]; 1 mg/kg PO, individual animals): 22 Nos. and 0 Nos. (2×) and 18 Nos. (2×) and 13 Nos. and 62 Nos. and 49 Nos. and 3 Nos.
- Scratching bouts (Nos.) in 30 min, 10-15 min ([1]; 1 mg/kg PO, individual animals): 9 Nos. (2×) and 0 Nos. (3×) and 13 Nos. and 1 Nos. and 4 Nos. and 46 Nos.
- Scratching bouts (Nos.) in 30 min, 15-20 min ([1]; 1 mg/kg PO, individual animals): 41 Nos. and 14 Nos. and 28 Nos. (2×) and 16 Nos. and 45 Nos. and 25 Nos. and 11 Nos. and 0 Nos.
- Scratching bouts (Nos.) in 30 min, 20-25 min ([1]; 1 mg/kg PO, individual animals): 28 Nos. and 0 Nos. (5×) and 18 Nos. and 8 Nos. and 21 Nos.
- Scratching bouts (Nos.) in 30 min, 25-30 min ([1]; 1 mg/kg PO, individual animals): 6 Nos. and 25 Nos. and 4 Nos. and 0 Nos. (4×) and 14 Nos. and 24 Nos.
- Total Scratching bouts ([1]; 1 mg/kg PO, individual animals): 106 Nos./30 min and 39 Nos./30 min and 81 Nos./30 min and 26 Nos./30 min and 93 Nos./30 min and 95 Nos./30 min and 71 Nos./30 min and 22 Nos./30 min and 101 Nos./30 min
- Scratching bouts (Nos.) in 30 min, 0-5 min ([1]; 3 mg/kg PO, MEAN, N=9): 4.89 Nos.
- Scratching bouts (Nos.) in 30 min, 5-10 min ([1]; 3 mg/kg PO, MEAN, N=9): 3.89 Nos.
- Scratching bouts (Nos.) in 30 min, 10-15 min ([1]; 3 mg/kg PO, MEAN, N=9): 11.44 Nos.
- Scratching bouts (Nos.) in 30 min, 15-20 min ([1]; 3 mg/kg PO, MEAN, N=9): 9.89 Nos.
- Scratching bouts (Nos.) in 30 min, 20-25 min ([1]; 3 mg/kg PO, MEAN, N=9): 4.33 Nos.
- Scratching bouts (Nos.) in 30 min, 25-30 min ([1]; 3 mg/kg PO, MEAN, N=9): 3.44 Nos.
- Total Scratching bouts ([1]; 3 mg/kg PO, MEAN, N=9): 37.89 Nos./30 min
- Scratching bouts (Nos.) in 30 min, 0-5 min ([1]; 3 mg/kg PO, individual animals): 16 Nos. and 0 Nos. (4×) and 19 Nos. and 1 Nos. and 3 Nos. and 5 Nos.
- Scratching bouts (Nos.) in 30 min, 5-10 min ([1]; 3 mg/kg PO, individual animals): 0 Nos. (7×) and 33 Nos. and 2 Nos.
- Scratching bouts (Nos.) in 30 min, 10-15 min ([1]; 3 mg/kg PO, individual animals): 44 Nos. and 4 Nos. and 0 Nos. (4×) and 10 Nos. and 16 Nos. and 29 Nos.
- Scratching bouts (Nos.) in 30 min, 15-20 min ([1]; 3 mg/kg PO, individual animals): 17 Nos. and 14 Nos. and 33 Nos. and 0 Nos. (4×) and 3 Nos. and 22 Nos.
- Scratching bouts (Nos.) in 30 min, 20-25 min ([1]; 3 mg/kg PO, individual animals): 13 Nos. and 0 Nos. (5×) and 14 Nos. and 3 Nos. and 9 Nos.
- Scratching bouts (Nos.) in 30 min, 25-30 min ([1]; 3 mg/kg PO, individual animals): 9 Nos. and 0 Nos. (5×) and 3 Nos. and 15 Nos. and 4 Nos.
- Total Scratching bouts ([1]; 3 mg/kg PO, individual animals): 99 Nos./30 min and 18 Nos./30 min and 66 Nos./30 min and 29 Nos./30 min and 24 Nos./30 min and 59 Nos./30 min and 3 Nos./30 min and 12 Nos./30 min and 31 Nos./30 min
- Scratching bouts (Nos.) in 30 min, 0-5 min ([1]; 10 mg/kg PO, MEAN, N=9): 0.00 Nos.
- Scratching bouts (Nos.) in 30 min, 5-10 min ([1]; 10 mg/kg PO, MEAN, N=9): 0.00 Nos.
- Scratching bouts (Nos.) in 30 min, 10-15 min ([1]; 10 mg/kg PO, MEAN, N=9): 7.33 Nos.
- Scratching bouts (Nos.) in 30 min, 15-20 min ([1]; 10 mg/kg PO, MEAN, N=9): 4.11 Nos.
- Scratching bouts (Nos.) in 30 min, 20-25 min ([1]; 10 mg/kg PO, MEAN, N=9): 2.78 Nos.
- Scratching bouts (Nos.) in 30 min, 25-30 min ([1]; 10 mg/kg PO, MEAN, N=9): 1.11 Nos.
- Total Scratching bouts ([1]; 10 mg/kg PO, MEAN, N=9): 15.33 Nos./30 min
- Scratching bouts (Nos.) in 30 min, 0-5 min [1, 3]: 0 Nos.
- Scratching bouts (Nos.) in 30 min, 5-10 min [1, 3]: 0 Nos.
- Scratching bouts (Nos.) in 30 min, 10-15 min [1, 3]: 0 Nos. (7×) and 33 Nos. (2×)
- Scratching bouts (Nos.) in 30 min, 15-20 min [1, 3]: 0 Nos. (6×) and 8 Nos. and 3 Nos. and 26 Nos.
- Scratching bouts (Nos.) in 30 min, 20-25 min [1, 3]: 0 Nos. (6×) and 12 Nos. and 9 Nos. and 4 Nos.
- Scratching bouts (Nos.) in 30 min, 25-30 min [1, 3]: 2 Nos. (2×) and 0 Nos. (6×) and 6 Nos.
- Total Scratching bouts [1, 3]: 2 Nos./30 min and 14 Nos./30 min and 41 Nos./30 min and 33 Nos./30 min and 0 Nos./30 min (2×) and 15 Nos./30 min and 3 Nos./30 min and 30 Nos./30 min
- Scratching bouts (Nos.) in 30 min, 0-5 min ([1]; 30 mg/kg PO, MEAN, N=9): 0.00 Nos.
- Scratching bouts (Nos.) in 30 min, 5-10 min ([1]; 30 mg/kg PO, MEAN, N=9): 0.00 Nos.
- Scratching bouts (Nos.) in 30 min, 10-15 min ([1]; 30 mg/kg PO, MEAN, N=9): 0.00 Nos.
- Scratching bouts (Nos.) in 30 min, 15-20 min ([1]; 30 mg/kg PO, MEAN, N=9): 0.00 Nos.
- Scratching bouts (Nos.) in 30 min, 20-25 min ([1]; 30 mg/kg PO, MEAN, N=9): 0.00 Nos.
- Scratching bouts (Nos.) in 30 min, 25-30 min ([1]; 30 mg/kg PO, MEAN, N=9): 0.00 Nos.
- Total Scratching bouts ([1]; 30 mg/kg PO, MEAN, N=9): 0.00 Nos./30 min
- Scratching bouts (Nos.) in 30 min, 0-5 min [1, 4]: 0 Nos.
- Scratching bouts (Nos.) in 30 min, 5-10 min [1, 4]: 0 Nos.
- Scratching bouts (Nos.) in 30 min, 10-15 min [1, 4]: 0 Nos.
- Scratching bouts (Nos.) in 30 min, 15-20 min [1, 4]: 0 Nos.
- Scratching bouts (Nos.) in 30 min, 20-25 min [1, 4]: 0 Nos.
- Scratching bouts (Nos.) in 30 min, 25-30 min [1, 4]: 0 Nos.
- Total Scratching bouts [1, 4]: 0 Nos./30 min
- scratching bouts compared to vehicle treatment, significance ([1]; at 0.3, 1, 3, 10 and 30 mg/kg doses): Statistically significant decrease
- total number of scratching bouts, dose response ([1]; quantified for 30 minutes post CQ injection, 0.3-30 mg/kg PO): dose dependent decrease
- open field activity compared to vehicle (Male C57BL/6 Mice): significant increase in activity
